Data set [1] is described as follows: Clinical investigations, tolerability in patients. In kind it is in vivo.
The nature of the next data set: Water solubility. It counts as physicochemical.
The nature of data set [2]: Long-term storage stability of the amorphous form by powder XRD. It counts as physicochemical. To be noted: stored during 1 year, 8 months and 23 days. Here is the method:
This means that the amorphous Na salt of TMC435 allows stable storage during a normal shelf life period. X-ray powder diffraction (XRPD) analysis was carried out on a Philips X′PertPRO MPD diffractometer PW3050/60 with generator PW3040. The instrument was equipped with a Cu LFF X-ray tube PW3373/10. The compound was spread on a zero background sample holder.

A short description of data set [3]: Adsorption-Desorption (DVS), dynamic vapor sorption. In kind it is physicochemical. Particulars: for water adsorbed: at high relative humidity. The protocol: Amorphous TMC435 (19 mg) was transferred into a SMS (Surface Measurement Systems Ltd.) dynamic vapor sorption model DVS-1 and the weight change was recorded with respect to the atmospheric humidity at 25° C.

Regarding `COc1ccc2c(O[C@@H]3C[C@H]4C(=O)N[C@]5(C(=O)NS(=O)(=O)C6CC6)C[C@H]5/C=C\CCCCN(C)C(=O)[C@@H]4C3)cc(-c3nc(C(C)C)cs3)nc2c1C` [TMC435, (1R,4R,6S,15R,17R)-cis-N-[17-[2-(4-isopropylthiazol-2-yl)-7-methoxy-8-methyl-quinolin-4-yloxy]-13-methyl-2,14-dioxo-3,13-diazatricyclo[13.3.0.0^4,6]octadec-7-ene-4-carbonyl] (cyclopropyl)sulfonamide], in data set [1], the tolerability in patients entry is recorded as “well-tolerated”. Also, in “Water solubility”, the water solubility entry is listed as “poorly water-soluble”.
Take `COc1ccc2c(O[C@@H]3C[C@H]4C(=O)N[C@]5(C(=O)[N-]S(=O)(=O)C6CC6)C[C@H]5/C=C\CCCCN(C)C(=O)[C@@H]4C3)cc(-c3nc(C(C)C)cs3)nc2c1C.[Na+]` [amorphous sodium salt of TMC435]: the “powder XRD pattern after storage compared with pattern shortly after preparation” value in data set [2] is given as “remained essentially unchanged”. In addition, the “moisture remaining on the product during the desorption cycle” value in data set [3] (DVS desorption cycle, 25° C.) turned out to be 1.61%. Also, in data set [3] (DVS, drying 60 min under dry nitrogen, 25° C.), the “weight loss during the initial drying step” value is on record as 2.03%. Moreover, the water adsorbed result was “up to 13%” in data set [3] (25° C.) and “up to 13.1%” in data set [3] (25° C., listed as sodium salt of compound I). Further, in data set [3] (brought into contact with humidity), the “stability when water is absorbed” value is listed as “remains stable”. Besides, the values for the hygroscopicity entry in data set [3] (listed as Amorphous Sodium Salt Prepared According to Example 1) and in data set [3] (listed as sodium salt of compound I) were “Hygroscopic” and “hygroscopic”, respectively. Further, the “solid form after DVS (IR and XRD)” value in data set [3] (product obtained after DVS) is listed as “remained amorphous”.

Source of the values: US9321758B2, “Amorphous salt of a macrocyclic inhibitor of HCV” (Janssen Pharmaceuticals, Inc., priority 2009, dated 2016).
